Assay results from ChEMBL document CHEMBL5338783, “Discovery of an Anti-TNF-α 9-mer Peptide from a T7 Phage Display Library for the Treatment of Inflammatory Bowel Disease” (J Med Chem, 2023).
Calls of active or inactive are those of the source. The calls are words filed in the database; no cut-off is given here. Peptide text beside a SMILES is read from it.

How the values were obtained:
[1] = Toxicity in DSS-induced acute colitis in C57BL/6 mouse model assessed as animal survival at 0.5 to 1 mg/kg, ip daily for 11 days; type: organism-based; conditions: in vivo, 264 h, dose 0.5-1 mg/kg, time 11 day
Mus musculus [2] = assay: Anti-colitis activity against DSS-induced acute colitis in C57BL/6 mouse model assessed as reversal of body weight loss at 0.5 to 1 mg/kg, ip daily for 11 days; type: functional, organism-based; conditions: dose 0.5-1 mg/kg, time 11.0 day
Mus musculus [3] = assay: Anti-colitis activity against DSS-induced acute colitis in C57BL/6 mouse model assessed as decrease in disease activity index at 1 mg/kg, ip daily for 7 days; type: functional; conditions: time 7 day
[4] = biological target: T1, Tumor necrosis factor receptor superfamily member 1A (Homo sapiens) (UniProt P19438); assay: Binding affinity to TNFR1 (unknown origin) at 488.3 to 500 uM incubated for 10 mins by MST assay; conditions: dose 488.3-500 µM
T1 sequence (whole entry): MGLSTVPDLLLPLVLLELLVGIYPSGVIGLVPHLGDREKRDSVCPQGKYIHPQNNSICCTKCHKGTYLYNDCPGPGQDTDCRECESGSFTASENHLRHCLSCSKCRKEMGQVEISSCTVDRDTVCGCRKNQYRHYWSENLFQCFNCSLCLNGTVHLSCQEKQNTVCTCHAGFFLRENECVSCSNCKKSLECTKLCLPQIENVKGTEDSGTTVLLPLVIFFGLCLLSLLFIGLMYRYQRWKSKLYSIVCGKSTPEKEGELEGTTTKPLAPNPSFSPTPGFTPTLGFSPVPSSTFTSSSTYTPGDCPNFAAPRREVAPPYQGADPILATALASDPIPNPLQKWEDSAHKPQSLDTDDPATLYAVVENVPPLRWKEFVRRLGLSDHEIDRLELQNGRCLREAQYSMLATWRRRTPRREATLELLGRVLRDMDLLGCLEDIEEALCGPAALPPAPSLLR

BMDM [5] = assay: Antiinflammatory activity in mouse BMDM cells assessed as decrease in LPS-stimulated IL-6 mRNA level incubated for 3 hrs by RT-qPCR analysis; type: functional, cell-based; conditions: dose 25-100 µM
Mus musculus [6] = assay: Anti-colitis activity against DSS-induced acute colitis in C57BL/6 mouse model assessed as reduction in colonic epithelial disruption at 0.5 to 1 mg/kg, ip daily for 11 days by H and E staining based analysis; type: functional, organism-based; conditions: dose 0.5-1 mg/kg, time 11.0 day
Mus musculus [7] = assay: Anti-colitis activity against DSS-induced acute colitis in C57BL/6 mouse model assessed as decrease in disease activity index at 0.5 to 1 mg/kg, ip daily for 11 days; type: functional, organism-based; conditions: dose 0.5-1 mg/kg, time 11.0 day
BMDM [8] = assay: Antiinflammatory activity in LPS-stimulated mouse BMDM cells assessed as inhibition of NF-kappaB signalling pathway incubated for 3 hrs by Western blot analysis; type: functional, cell-based; conditions: dose 25-100 µM
RAW264.7 [9] = assay: Antiinflammatory activity in mouse RAW264.7 cells assessed as decrease in LPS-stimulated IL-6 mRNA level at 25 to 100 uM incubated for 3 hrs by RT-qPCR analysis; type: functional, cell-based; conditions: dose 25-100 µM
Mus musculus [10] = assay: Anti-colitis activity against DSS-induced acute colitis in C57BL/6 mouse model assessed as […] in IL-6 mRNA level at 0.5 to 1 mg/kg, ip daily for 7 days by RT-qPCR analysis; type: functional, organism-based; conditions: dose 0.5-1 mg/kg, time 7.0 day
Mus musculus [11] = assay: Anti-colitis activity against DSS-induced acute colitis in C57BL/6 mouse model assessed as protection of body weight loss at 0.5 to 1 mg/kg, ip daily for 7 days; type: functional, organism-based; conditions: dose 0.5-1 mg/kg, time 7.0 day
Mus musculus [12] = assay: Anti-colitis activity against DSS-induced acute colitis in C57BL/6 mouse model assessed as increase in body weight value at 1 mg/kg, ip daily for 7 days; type: functional; conditions: time 7 day
BMDM [13] = assay: Antiinflammatory activity in mouse BMDM cells assessed as decrease in LPS-stimulated IL-1beta mRNA level incubated for 3 hrs by RT-qPCR analysis; type: functional, cell-based; conditions: dose 25-100 µM
Tumor necrosis factor = Tumor necrosis factor (Homo sapiens, UniProt P01375); assay: Binding affinity to TNF-alpha (unknown origin) assessed as dissociation constant by SPR analysis
Mus musculus [14] = assay: Anti-colitis activity against DSS-induced acute colitis in C57BL/6 mouse model assessed as reduction in granulocyte infiltration in colon at 0.5 to 1 mg/kg, ip daily for 11 days by H and E staining based analysis; type: functional, organism-based; conditions: dose 0.5-1 mg/kg, time 11.0 day
BMDM [15] = assay: Antiinflammatory activity in mouse BMDM cells assessed as decrease in LPS-stimulated IFN-alpha mRNA level incubated for 3 hrs by RT-qPCR analysis; type: functional, cell-based; conditions: dose 25-100 µM
Mus musculus [16] = assay: Anti-colitis activity against DSS-induced acute colitis in C57BL/6 mouse model assessed as reduction in goblet cell depletion in colon at 0.5 to 1 mg/kg, ip daily for 11 days by H and E staining based analysis; type: functional, organism-based; conditions: dose 0.5-1 mg/kg, time 11.0 day
Mus musculus [17] = assay: Antiinflammatory activity against DSS-induced acute colitis in C57BL/6 mouse model assessed as decrease in p65 phosphorylation in colon tissue administered intraperitoneally daily for 7 days by Western blot analysis; type: functional, organism-based; conditions: dose 0.5-1 mg/kg, route ip, time 7.0 day
RAW264.7 [18] = assay: Antiinflammatory activity in LPS-stimulated mouse RAW264.7 cells assessed as inhibition of ERK1/2 phosphorylation incubated for 3 hrs by Western blot analysis; type: functional, cell-based; conditions: dose 25-100 µM
RAW264.7 [19] = assay: Antiinflammatory activity in mouse RAW264.7 cells assessed as decrease in LPS-stimulated IL-1beta mRNA level incubated for 3 hrs by RT-qPCR analysis; type: functional, cell-based; conditions: dose 25-100 µM
RAW264.7 [20] = assay: Antiinflammatory activity in LPS-stimulated mouse RAW264.7 cells assessed as inhibition of p38 phosphorylation incubated for 3 hrs by Western blot analysis; type: functional, cell-based; conditions: dose 25-100 µM
Mus musculus [21] = assay: Anti-colitis activity against DSS-induced acute colitis in C57BL/6 mouse model assessed as reduction in colon length at 0.5 to 1 mg/kg, ip daily for 11 days; type: functional, organism-based; conditions: dose 0.5-1 mg/kg, time 11.0 day
Mus musculus [22] = assay: Anti-colitis activity against DSS-induced acute colitis in C57BL/6 mouse model assessed as decrease in disease activity index at 0.5 to 1 mg/kg, ip daily for 7 days; type: functional, organism-based; conditions: dose 0.5-1 mg/kg, time 7.0 day

Sequence of Tumor necrosis factor (P01375 whole entry): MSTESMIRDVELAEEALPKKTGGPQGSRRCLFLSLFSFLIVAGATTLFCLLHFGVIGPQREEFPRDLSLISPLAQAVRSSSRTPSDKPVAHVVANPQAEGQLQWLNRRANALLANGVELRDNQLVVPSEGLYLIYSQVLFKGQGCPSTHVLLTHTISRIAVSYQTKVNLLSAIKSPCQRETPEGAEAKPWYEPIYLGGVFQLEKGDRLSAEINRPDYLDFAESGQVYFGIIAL

Structure (SMILES): C[C@H](N)C(=O)N[C@@H](CS)C(=O)N[C@@H](Cc1cnc[nH]1)C(=O)N[C@@H](C)C(=O)N[C@@H](Cc1c[nH]c2ccccc12)C(=O)N[C@@H](C)C(=O)N1CCC[C@H]1C(=O)N[C@H](C(=O)N[C@@H](CCCNC(=N)N)C(=O)O)[C@@H](C)O (H-ACHAWAPTR-OH)
- Activity [1]: Non-Toxic
- Activity (Mus musculus [2]): Active
- Activity (Mus musculus [3]): -1.25
- Activity [4]: inactive
- Activity (BMDM [5]): Dose-Dependent Effect
- Activity (Mus musculus [6]): Active
- Activity (Mus musculus [7]): Active
- Activity (BMDM [8]): Dose-Dependent Effect
- Activity (RAW264.7 [9]): Dose-Dependent Effect
- Activity (Mus musculus [10]): Active
- Activity (Mus musculus [11]): Active
- Activity (Mus musculus [12]): 0.24
- Activity (BMDM [13]): Dose-Dependent Effect
- Kd (Tumor necrosis factor): 6 µM
- Activity (Mus musculus [14]): Active
- Activity (BMDM [15]): Dose-Dependent Effect
- Activity (Mus musculus [16]): Active
- Activity (Mus musculus [17]): Dose-Dependent Effect
- Activity (RAW264.7 [18]): Dose-Dependent Effect
- Activity (RAW264.7 [19]): Active
- Activity (RAW264.7 [20]): Dose-Dependent Effect
- Activity (Mus musculus [21]): Active
- Activity (Mus musculus [22]): Active
